Test results: US20240246941A1, “SUBSTITUTED 4-(3-AMINOPROP-1-YL)AMINOQUINOLINE ANALOGS AS MODULATORS OF MELANOMA-ASSOCIATED ANTIGEN 11 UBIQUITIN LIGASE” (ST. JUDE CHILDREN'S RESEARCH HOSPITAL, INC., priority 2020, published 2024)
Values after ≈ are worked out from the molar mass of the structure shown. “Also recorded” adds a separate entry of the source. Read-outs that look alike come from different tables or passages of the source.

How the values were obtained:
[1] = test system: MAGE-A11-knockout DAOY cells or those reconstituted with MAGE-A11; assay: Cell viability alamarBlue assay, DAOY cells; assay type: cell-based; details: MAGE-A11 expressing DAOY cells versus MAGE-A11-negative cells, 24 hours, listed as SJ521054
Protocol: Cell viability Assay. To assess cell viability after SJ521054 treatment, 1×10^4 cells/ml were treated with SJ521054 (0-40 μM) and incubated for 24 hours prior to changing the media and adding alamarBlue (Thermo Fisher Scientific) and incubating for 4 hours at 37° C. Plates were read by measuring the fluorescence with excitation wavelength at 540 nm and emission wavelength at 590 nm on an Enspire plate reader.

[2] = Solubility assay (μSOL Evolution, UV); assay type: physicochemical; details: 18 h at RT in buffer
Protocol: Solubility assays were carried out on a Biomek FX lab automation workstation (Beckman Coulter, Inc., Fullerton, CA) using SOL Evolution software (pION Inc., Woburn, MA). The detailed method is described as follows. 10 μl of 10 mM compound stock (in DMSO) was added to 190 μl 1-propanol to make a reference stock plate. 5 μl from this reference stock plate were mixed with 70 μl 1-propanol and 75 μl citrate phosphate-buffered saline (PBS; isotonic) to make the reference plate, and the UV spectrum (250-500 nm) of the reference plate was read. 6 μl of 10 mM test compound stock was added to 594 μl buffer in a 96-well storage plate and mixed. The storage plate was sealed and incubated at RT for 18 h. The suspension was then filtered through a 96-well filter plate (pION Inc., Woburn, MA). 75 μl of filtrate was mixed with 75 μl 1-propanol to make the sample plate, and the UV spectrum of the sample plate was read. Calculations were carried out with μSOL Evolution software based on the area under the curve (AUC) of the UV spectrum of the sample and reference plates. All compounds were tested in triplicate.

[3] = target: MAGE-A11 binding to PCF11 in FLAG-MAGE-A11 HEK293FT cell lysates (Homo sapiens (Human), UniProt P43364); assay: anti-FLAG pull-down (co-IP) of MAGE-A11:PCF11 in cell lysates; details: 100 μM, 24 hours, immunoblot for endogenous PCF11, listed as SJ521054
Chain of MAGE-A11 binding to PCF11 in FLAG-MAGE-A11 HEK293FT cell lysates (P43364 whole entry): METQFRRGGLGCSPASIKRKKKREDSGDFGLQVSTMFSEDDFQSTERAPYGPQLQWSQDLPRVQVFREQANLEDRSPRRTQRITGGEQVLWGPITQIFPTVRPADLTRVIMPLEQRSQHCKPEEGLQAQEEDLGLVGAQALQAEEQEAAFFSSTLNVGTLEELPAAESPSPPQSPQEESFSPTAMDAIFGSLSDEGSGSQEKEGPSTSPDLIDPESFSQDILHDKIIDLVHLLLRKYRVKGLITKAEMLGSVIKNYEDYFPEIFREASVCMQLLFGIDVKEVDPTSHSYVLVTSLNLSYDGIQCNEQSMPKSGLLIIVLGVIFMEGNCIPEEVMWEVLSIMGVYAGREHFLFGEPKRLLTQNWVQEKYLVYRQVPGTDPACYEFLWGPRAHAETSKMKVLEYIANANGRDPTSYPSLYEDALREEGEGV
Protocol: Immunoprecipitation. HEK293FT cells were plated in 6 cm^2 plates and transfected 24 hours later with Effectene (QIAGEN) according to the manufacturer's protocol. After 48 hours, cells were washed and scraped in cold PBS, spun down and resuspended in lysis buffer (50 mM Tris pH 7.4, 150 mM NaCl, 1 mM DTT, 0.1% (v/v) Triton X-100, 10 mM N-Ethylmaleimide and 1× protease inhibitor cocktail (Sigma)). Cell lysates were incubated with appropriate antibodies overnight at 4° C. and then with protein A beads for 2 hours at 4° C. Beads were then washed with lysis buffer three times and eluted with 2×SDS sample buffer.
(§1) Western Blotting and Antibodies. For western blotting, samples in SDS sample buffer were resolved on SDS-PAGE gels and then transferred to nitrocellulose membranes prior to blocking in TBST with 5% (w/v) milk powder or 3% (w/v) bovine serum albumin and probing with primary and secondary antibodies (GE Healthcare). Primary antibodies were: anti-Myc (Sigma, #C3956), anti-FLAG (Sigma, #F3165), anti-HUWE1 (Novus Biologicals, #NB 100-652), anti-PCF11 (Bethyl Laboratories, #A303-706A), anti-GAPDH (Cell Signaling Technology, #2118), anti-TRIM28 (Abcam, #ab22553), anti-AMPKa1 (Cell Signaling Technology, #2795) and anti-MMS19 (Proteintech, #16015-1-AP). Protein signal was visualized after addition of ECL detection reagent (GE Healthcare) according to manufacturer's instructions.

[4] = test system: PCF11 protein levels in HEK293FT cells; assay: PCF11 degradation by MAGE-A11, immunoblotting in HEK293FT cells; assay type: cell-based; details: 24 hours
Protocol: Cell culture and stable cell lines. HEK293FT, HeLa and DAOY cells were grown in DMEM (Gibco) supplemented with 10% (v/v) FBS (Hyclone), 2 mM L-glutamine, 100 units/ml penicillin, 100 units/ml streptomycin, and […] amphotericin B (Invitrogen). HEK293FT and DAOY cells were transfected with either HA-FLAG-vector, FLAG-MAGE-A11 wild-type or SBC mutants using Effectene (QIAGEN) according to the manufacturer's protocol in 6 cm^2 plates. After 48 hours, cells were selected with 1 μg/ml puromycin (Sigma) over 2 weeks.
as §1

[5] = High throughput Caco-2 permeability; assay type: in vitro ADME; details: human, 10 μmol/l, 2 h, 37° C.
Protocol: High throughput Caco-2 permeability was performed in the TranswellR 0.4 μm polycarbonate membrane 96-well system with modified methods. Caco-2 cells were maintained at 37° C. in a humidified incubator with an atmosphere of 5% CO2. The cells were cultured in 75 cm^2 flasks with Dulbecco's Modified Eagle's Medium (DMEM) containing 10% (v/v) FBS, 1% (v/v) non-essential amino acids (NEAA), 100 units/ml of penicillin, and 100 μg/ml of streptomycin. The Caco-2 cells were seeded onto inserts at a density of 2×10^4 cells/insert separately. The medium in the wells was exchanged each other day, and the trans epithelial electrical resistance (TEER) value was measured using an epithelial voltohm meter (Millipore, Billerica, Massachusetts). […] For transport experiments, each cultured monolayer on the 96-well plate was washed twice with a transport buffer (HBSS containing 25 mM HEPES, pH 7.4). The permeability assay was initiated by the addition of each compound solution (10 μmol/l) into inserts (apical side, A) or receivers (basolateral side, B). The Caco-2 cell monolayers were incubated for 2 h at 37° C. Fractions were collected from receivers (if apical to basal permeability) or inserts (if basal to apical permeability), and concentrations were assessed by UPLC/MS (Waters; Milford, MA). All compounds were tested in triplicates. The A→B (or B→A) apparent permeability coefficients (Papp) of each compound were calculated using the equation, Papp=dQ/dt×1/AC0, where dQ/dt equals the flux of a drug across the monolayer, A equals the total insert well surface area, and C0 is the initial concentration of substrate in the donor compartment. The efflux ratio was determined by dividing the Papp in the B-A direction by the Papp in the A-B direction.

For `FC(F)(F)c1ccc2c(NCCCNCc3ccc4[nH]ccc4c3)ccnc2c1` [SJ000521054-02, N^1-((1H-Indol-5-yl)methyl)-N^3-(7-(trifluoromethyl)quinolin-4-yl)propane-1,3-diamine], the cell viability [1] was “reduces viability of MAGE-A11 expressing DAOY cancer cells; also recorded: decreased the viability”, the “Solubility” value [2] was 26.48 µM (≈ 10.6 µg/mL) and the “MAGE-A11 binding to PCF11 in cell lysate (co-IP)” value [3] was “inhibited MAGE-A11 binding to PCF11 in cell lysates”. For the same molecule, the “PCF11 protein levels / PCF11 degradation by MAGE-A11” value ([4]; MAGE-A11 expressing HEK293FT cells, listed as SJ521054) was “blocks PCF11 degradation by MAGE-A11; also recorded: stabilized PCF11 protein levels”, the PCF11 protein levels ([4]; vector control HEK293FT cells) was “no effect” and the Papp at 2 h, 10 μmol/l ([5]; Caco-2, pH 7.4, apical to basolateral, read-out: Caco-2 permeability, A/B) was 11.5 ×10⁻⁶ cm/s. It also gave a Papp at 2 h, 10 μmol/l ([5]; Caco-2, pH 7.4, basolateral to apical, read-out: Caco-2 permeability, B/A) of 14.2 ×10⁻⁶ cm/s.
